Format in all cases: cell-based
The subject of assay [1] is Aspergillus fumigatus + Candida albicans co-culture. The experiment in a line: Broth microdilution MIC assay, co-culture of spores 1:1. Here is the method: Broth Microdilution Minimal Inhibitory Concentration (MIC) assays were performed to obtain the MIC values for Itraconazole and Ketoconazole with an antibiotic (Vancomycin or Tobramycin or Amikacin) against the two fungal strains.
The strains were maintained as a frozen glycerol stocks at −80° C. The fungal strains were prepared by thawing a glycerol stock, streaking and growing onto Sabouraud's Dextrose Agar (SDA) plates, overnight at 35±2° C. in aerobic conditions and used for the assay.
The completely synthetic medium RPMI-1640 (with glutamine, without bicarbonate, and with phenol red as a pH indicator) was buffered with 0.165 mol/L MOPS (3-[N-morpholino] propanesulfonic acid) buffer was used as the growth medium for the fungal strains. Overnight cultures of the fungal strains were grown on Difco™ Sabouraud's Dextrose Agar (SDA) plates at 35° C. To induce conidium and sporangiospore formation, the culture plates were transferred to incubator and grown for 5-7 days 30° C. or until good sporulation was obtained. Approximately, 10 mL of 0.85% saline containing 0.01% of Tween 80 was used to poured on to the agar plate containing conidia or sporangiospores and hyphal fragments. The suspension containing conidia or sporangiospores and hyphal fragments was aspirated and transferred to a sterile tube. This mixture was filtered to separate the spores from the vegetative cells of the fungi. The supernatant containing only fungal spores was used for all the assays. Fungal spore inoculum was prepared in RPMI-1640 (with glutamine, without bicarbonate, and with phenol red as a pH indicator) was buffered with 0.165 mol/L MOPS (3-[N-morpholino] propanesulfonic acid) buffer to a final density of 10^6 CFU/mL using a hemocytometer.
Each MIC assay included 11 2-fold serial dilutions of the antifungal agents. Test concentrations for the test articles were tested at the following concentrations: 64 μg/mL, 32 μg/mL, 16 μg/mL, 8 μg/mL, 4 μg/mL, 2 μg/mL, 1 μg/mL, 0.5 μg/mL, 0.25 μg/mL, 0.125 μg/mL, and 0.0625 μg/mL. Broth microdilution assays were performed according to the procedures detailed in CLSI document M38-A2 (CLSI, 2008). Briefly, 2× stock solutions of test articles were prepared at 128 μg/mL. A two-fold serial dilution of the stock solution were performed. Diluted stock solutions of the fungal spores were adjusted (to be equivalent to 10^6 CFU/mL). 1× final concentration of the antifungals was obtained when they were combined with the fungal spore broth in the microtiter plate. Plates were incubated for 3-5 days at 35±2° C. in an ambient air incubator. MIC values recorded are the minimum concentration of the test articles that inhibits growth as observed by unaided eye. The MIC values was expressed in μg/mL. The assay was carried out in duplicates.

Assay [2] concerns Candida albicans. The experiment in a line: Culture sensitivity, Patient 7 fungal isolate. Particulars: Patient 7 culture. From the text: (§1) The patient underwent the standard workup for CRS, sleep disorder, and nasal obstruction, plus our diagnostic skin test and sinus CT scan.
Assay [3] concerns S. aureus, a gram negative bacteria. The assay can be described thus: Culture sensitivity, Patient 7 bacterial isolate. Particulars: Patient 7 culture.
From the text: as §1

Where [4] appears, read: A. fumigatus + C. albicans co-culture, repeated MIC study (Table 4), agent alone, read-out: MIC.

The text below walks through data of patent publication US20180064710A1, “ANTIFUNGAL TREATMENT OF PSORIASIS” (Gerbe Labs Inc., priority 2016, published 2018).

SMILES strings stand for the structures. Where two headings read alike, the source gives them in different places.

What is called MIC is the lowest concentration that inhibits growth of the organism. Consider `CCC(C)n1ncn(-c2ccc(N3CCN(c4ccc(OCC5COC(Cn6cncn6)(c6ccc(Cl)cc6Cl)O5)cc4)CC3)cc2)c1=O` (stereo not drawn) [Itraconazole], for which the MIC in assay [1] (A. fumigatus + C. albicans co-culture 1:1, first study (Table 3), read-out: MIC) was 0.5 µg/mL; in assay [1] (A. fumigatus + C. albicans co-culture, repeated MIC study (Table 4), agent alone, listed as Itraconazone), 1 µg/mL; in assay [1] (setting [4]) it was 1 µg/mL.
With `CC(=O)N1CCN(c2ccc(OCC3COC(Cn4ccnc4)(c4ccc(Cl)cc4Cl)O3)cc2)CC1` (stereo not drawn) [Ketoconazole], the MIC in assay [1] (setting [4]) was 8 µg/mL. Further, the “Sensitivity of cultured Candida albicans” value in assay [2] is “sensitive”.
As to `NC[C@H]1O[C@H](O[C@H]2[C@H](O)[C@@H](O[C@H]3O[C@H](CO)[C@@H](O)[C@H](N)[C@H]3O)[C@H](N)C[C@@H]2N)[C@H](N)C[C@@H]1O` [tobramycin], the “Sensitivity of cultured bacteria” value in assay [3] is “sensitive”.
